Experimental data as given in patent US20140154702A1, “Methods For Treating Cancer Using Combination Therapies” (ENDOCYTE, INC., priority 2012, published 2014).
“Also recorded” adds a separate entry of the source. Where two headings read alike, the source gives them in different places.

How the values were obtained:
Format in all cases: cell-based
KB cells [1] = assay: Inhibition of non-FR-specific activity (cytotoxicity) of EC0531 by co-administered inhibitors, KB cells; conditions: for IC50: read-out: IC50 of inhibition of non-FR-specific activity of EC0531
Description: Extracellular thiol activity was determined using the DTNB method described above. […] Cells were seeded in 24-well tissue culture-treated plates at 1×10^5 cells per well and allowed to attach overnight at 37° C. […] To assess non-FR-targeted activity in FR+cells, 100 μM FA was included as a competitor along with the drug in the treatment solutions. Cells were incubated for 2 hours in the presence of drug, washed 3 times with media, and then chased in 0.5 mL of FDRPMI/HIFBS (FR+cells) or RPMI+FA/HIFBS (FR−cells) to 72 h at 37° C. Spent medium was then aspirated from the wells, and cells were incubated with 1 μCi/mL ^3H-thymidine for 4 hours at 37° C., washed two times with PBS, pH 7.4, then treated with 0.4 mL 5% trichloroacetic acid per well. After 15 minutes, the trichloroacetic acid was aspirated from the wells, and cells were solubilized in 0.5 mL 0.25 N sodium hydroxide. Each sample (450 μL) was transferred to a scintillation vial containing 3 mL of Ecolite+scintillation cocktail and then counted in a liquid scintillation counter (LSC). Final results were expressed as percentage of ^3H-thymidine incorporation relative to an untreated control (non-competed groups) or FA control (competed groups).
The inhibition of non-FR-specific activity (i.e., cytotoxicity) was evaluated for each thiol inhibitor.
Cells were seeded in 24-well tissue culture-treated plates at 1×10^5 cells per well and allowed to attach overnight at 37° C. […] Cells were incubated for 2 hours in the presence of drug, competitor, and inhibitor, washed 3 times with media, and then chased in 0.5 mL of FDRPMI/HIFBS to 72 hours at 37° C. Cells were then treated as described above to determine ^3H-thymidine incorporation. Final results were expressed as percentage of ^3H-thymidine incorporation relative to an untreated control (non-competed groups) or FA control (competed groups).
The inhibition of non-FR-specific activity (i.e., cytotoxicity) was evaluated. KB cells were seeded in 24-well tissue culture-treated plates at 1×10^5 cells per well in FDRPMI/HIFBS and allowed to attach to the plates overnight at 37° C. […] Cells were incubated for 2 hours in the presence of drug, FA competitor, and inhibitor, washed 3 times with media, then chased in 0.5 mL of FDRPMI/HIFBS to 72 hours at 37° C. Cells were then treated as described above to determine ^3H-thymidine incorporation. Final results were expressed as percentage of ^3H-thymidine incorporation relative to an untreated control (non-competed groups) or FA control (competed groups). […]

A549 cells [2] = assay: Extracellular thiol activity (DTNB method), A549 cells; conditions: for effect of added thiol on extracellular thiol activity (SH concentration): added to SH-free RPMI: GSSG (1.6 μM), cysteine (189 μM), 2 hours, FIG. 11; for effect on release of extracellular thiols (SH concentration): glutamate (5 mM), quisqualic acid (0.3 mM and 1 mM), 2 hours at 37° C., FIG. 12
KB cells [3] = assay: 3H-EC0531 uptake study, KB cells; conditions: for effect of inhibitor on nonspecific uptake of 3H-EC0531: 1 μM EC0531 plus inhibitor, 100 μM FA, 2 hours at 37° C.
Description: (§1) To determine non-FR-targeted uptake, 100 μM FA was included in the uptake solutions. Cells were incubated with 0.5 mL of uptake solution for 2 h at 37° C., washed 3 times with ice-cold PBS, and were solubilized in 0.5 mL 1% SDS in PBS, pH 7.4. Cell lysates (450 μL) were added to 3 mL Ecolite+scintillation cocktail and counted in a liquid scintillation counter. Protein concentrations of the remaining lysates were determined using the BCA Protein Assay (Pierce, Rockford, Ill.). Molecules per cell were calculated based on DPM values and previously determined cellular protein conversion factors (2.82×10^−7 and 2.23×10^−7 mg protein per cell for KB and A549, respectively).
(§2) FA at a concentration of 100 μM was used as a competitor to determine non-FR-specific uptake in KB cells. Wells were then washed 3 times with 1 mL of ice-cold PBS, pH 7.4 and were processed for LSC analysis as described above.
(§3) Wells were then washed 3 times with 1 mL of ice-cold PBS, pH 7.4 and were processed for LSC analysis as described above.

A549 cells [4] = assay: 3H-EC0531 uptake study, A549 cells; conditions: for effect of inhibitor on nonspecific uptake of 3H-EC0531: 1 μM EC0531 plus inhibitor, 2 hours at 37° C.
Description: as §1, §2, §3

KB cells [5] = assay: Inhibition of non-FR-specific activity (cytotoxicity) of EC0531 by co-administered inhibitors, KB cells; conditions: KB cells pre-treated with inhibitor prior to EC0531 and folic acid; DTNB (100 μM), NCEM (10 mM); FIG. 6
A549 cells [6] = assay: Inhibition of non-FR-specific activity (cytotoxicity) of EC0531 by co-administered inhibitors, A549 cells; conditions: sulfasalazine (1 mM), glutamate (5 mM) with increasing EC0531, 2 hours, chase to 72 hours, FIG. 14
Description: Cells were then treated as described above to determine ^3H-thymidine incorporation. The inhibition of non-FR-specific activity (i.e., cytotoxicity) was evaluated for each system xc^− inhibitor.

[7] = DTNB 10 μM and 100 μM, excess folic acid, FIG. 8
[8] = KB cells, co-administered with EC0531 (1 μM) and folic acid (100 μM)
[9] = inhibitor concentration 3 mM, co-administration with EC0531
[10] = inhibitor concentration 100 μM, co-administration with EC0531
[11] = KB cells, co-administered with EC0531 (1 μM) and folic acid (100 μM), 2 hours, 72 hour chase

## O=C1OC(c2ccc(O)c(S(=O)(=O)O)c2)(c2ccc(O)c(S(=O)(=O)O)c2)c2c(Br)c(Br)c(Br)c(Br)c21 [BSP]
KB cells [1]
  Inhibition of EC0531 Nonspecific Activity: <50% inhibition

## N[C@@H](CS)C(=O)O [Cysteine, cysteine]
A549 cells [2]
  effect of added thiol on extracellular thiol activity (SH concentration): responsible for stimulation

## O=S(=O)(O)c1cc(N=C=S)ccc1C=Cc1ccc(N=C=S)cc1S(=O)(=O)O [DIDS]
KB cells [3]
  effect of inhibitor on nonspecific uptake of 3H-EC0531: reduced
KB cells [1]
  Inhibition of EC0531 Nonspecific Activity: Full inhibition
A549 cells [4]
  effect of inhibitor on nonspecific uptake of 3H-EC0531: reduced

## O=C(O)c1cc(SSc2ccc([N+](=O)[O-])c(C(=O)O)c2)ccc1[N+](=O)[O-] [DTNB, 5,5′-dithiobis(2-nitrobenzoic acid)]
KB cells [5]
  inhibition of non-FR-specific activity of EC0531 by pre-treatment of cells: not effective
KB cells [3]
  effect of inhibitor on nonspecific uptake of 3H-EC0531: reduced
KB cells [3]; [7]
  effect of inhibitor on nonspecific uptake of 3H-folic acid: mostly unaffected
KB cells [1]; [8]
  inhibition of non-FR-specific activity of EC0531 (in words): dose-responsive inhibition
KB cells [1]; inhibitor concentration 10 μM, co-administration with EC0531
  Inhibition of EC0531 Nonspecific Activity: Full inhibition
KB cells [1]
  IC50: 4.6 µM
A549 cells [4]
  effect of inhibitor on nonspecific uptake of 3H-EC0531: reduced
A549 cells [4]; [7]
  effect of inhibitor on nonspecific uptake of 3H-folic acid: mostly unaffected

## O=S(=O)([O-])CCSSCCS(=O)(=O)[O-].[Na+].[Na+] [Dimesna, 2,2′-dithio-bis-ethanesulfonate]
KB cells [1]
  Inhibition of EC0531 Nonspecific Activity: Full inhibition

## N[C@@H](CCC(=O)N[C@@H](CSCC(=O)Nc1ccc([As](O)O)cc1)C(=O)NCC(=O)O)C(=O)O [EC1277 (GSAO), 4-(N—(S-glutathionylacetyl)amino) phenylarsonous acid]
KB cells [1]; [9]
  Inhibition of EC0531 Nonspecific Activity: Full inhibition

## O=C(O[C@@H]1Cc2c(O)cc(O)cc2O[C@@H]1c1cc(O)c(O)c(O)c1)c1cc(O)c(O)c(O)c1 [EGCg, epigallocatechin gallate]
KB cells [1]; 100 µM
  Inhibition of EC0531 Nonspecific Activity: >50% inhibition

## O=C(O)CCN1C(=O)C=CC1=O [NCEM, N-(2-carboxyethyl)maleimide]
KB cells [5]
  inhibition of non-FR-specific activity of EC0531 by pre-treatment of cells: not effective
KB cells [3]
  effect of inhibitor on nonspecific uptake of 3H-EC0531: reduced
KB cells [1]; [8]
  inhibition of non-FR-specific activity of EC0531 (in words): dose-responsive inhibition
KB cells [1]; [10]
  Inhibition of EC0531 Nonspecific Activity: Full inhibition
KB cells [1]; [11]
  IC50: 17 µM
A549 cells [4]
  effect of inhibitor on nonspecific uptake of 3H-EC0531: reduced

## N[C@@H](CCC(=O)O)C(=O)O [glutamate]
A549 cells [2]
  effect on release of extracellular thiols (SH concentration): significantly reduce
A549 cells [6]
  inhibition of non-FR-specific activity of EC0531 (in words): inhibit

## CN(Cc1cnc2nc(N)nc(N)c2n1)c1ccc(C(=O)N[C@@H](CCC(=O)O)C(=O)O)cc1 [methotrexate]
KB cells [3]
  effect of inhibitor on nonspecific uptake of 3H-EC0531: ineffective
A549 cells [4]
  effect of inhibitor on nonspecific uptake of 3H-EC0531: ineffective

## O=S(=O)([O-])c1cc[c]([Hg][Cl])cc1 [pCMBS, p-chloromercuribenzene sulfonate]
KB cells [1]; [10]
  Inhibition of EC0531 Nonspecific Activity: >50% inhibition

## N[C@@H](Cn1oc(=O)[nH]c1=O)C(=O)O [quisqualic acid]
A549 cells [2]
  effect on release of extracellular thiols (SH concentration): significantly reduce; also recorded: dose-dependent reduction

## O=C(O)c1cc(/N=N/c2ccc(S(=O)(=O)Nc3ccccn3)cc2)ccc1O [sulfasalazine]
KB cells [3]
  effect of inhibitor on nonspecific uptake of 3H-EC0531: reduced
KB cells [1]; [8]
  inhibition of non-FR-specific activity of EC0531 (in words): dose-responsive inhibition
KB cells [1]; [11]
  IC50: 170 µM
A549 cells [6]
  inhibition of non-FR-specific activity of EC0531 (in words): inhibit; also recorded: greater inhibition
A549 cells [4]
  effect of inhibitor on nonspecific uptake of 3H-EC0531: reduced

## folate-maleimide
KB cells [1]; [8]
  inhibition of non-FR-specific activity of EC0531 (in words): dose-responsive inhibition
KB cells [1]; [10]
  Inhibition of EC0531 Nonspecific Activity: Full inhibition
KB cells [1]; [11]
  IC50: 3.5 µM

## methoxy-PEG5000-vinylsulfone
KB cells [1]; [9]
  Inhibition of EC0531 Nonspecific Activity: >50% inhibition

## oxidized glutathione [GSSG]
A549 cells [2]
  effect of added thiol on extracellular thiol activity (SH concentration): no effect
KB cells [1]
  Inhibition of EC0531 Nonspecific Activity: Full inhibition
